According to DBAASP:
Converted amounts (≈) assume the structure as drawn.

Key:
Experiment in all cases: ≥ marks a high value that may be exact or a test limit, other limits are often not marked, values filed in µg/mL are converted to µM
[1] = system: Bacillus cereus
[2] = system: Escherichia coli
[3] = system: Leuconostoc lactis
[4] = system: Listeria innocua
[5] = system: Micrococcus luteus
[6] = system: Pasteurella multocida
[7] = system: Staphylococcus aureus
[8] = system: Staphylococcus epidermidis
[9] = system: Streptococcus uberis
[10] = system: Bacillus subtilis CMCC 63501
[11] = system: Enterococcus faecalis ATCC 29212
[12] = system: Escherichia coli ATCC 25922
[13] = system: Pseudomonas aeruginosa ATCC 27853
[14] = system: Salmonella enterica subsp. enterica serovar Pullorum C79-13
[15] = system: Salmonella enterica subsp. enterica serovar Typhimurium C77-31
[16] = system: Staphylococcus aureus ATCC 29213
[17] = system: Staphylococcus epidermidis ATCC 12228
[18] = system: Batrachochytrium dendrobatidis JEL-197
[19] = system: Candida albicans ATCC 90028
[20] = system: Escherichia coli ATCC 25726
[21] = system: Staphylococcus aureus ATCC 25923
[22] = system: Escherichia coli O111
[23] = system: Bacillus subtilis
[24] = system: Candida albicans ATCC 2002
[25] = system: Escherichia coli ML-35p
[26] = system: Staphylococcus aureus ATCC 43300

CC[C@H](C)[C@H](NC(=O)[C@H](C)NC(=O)[C@@H]1CCCN1C(=O)[C@H](CC(C)C)NC(=O)[C@@H](NC(=O)[C@H](Cc1cnc[nH]1)NC(=O)[C@H](CO)NC(=O)[C@@H](NC(=O)[C@@H](NC(=O)[C@H](CO)NC(=O)CNC(=O)[C@H](CC(C)C)NC(=O)[C@H](CC(C)C)NC(=O)CNC(=O)[C@H](CC(C)C)NC(=O)[C@H](CC(C)C)NC(=O)CN)C(C)C)C(C)C)C(C)C)C(=O)N[C@H](C(=O)N[C@@H](CCC(N)=O)C(=O)N[C@@H](Cc1cnc[nH]1)C(=O)N[C@@H](CC(C)C)C(N)=O)[C@@H](C)O [GLLGLLGSVVSHVLPAITQHL]
MIC [1]: ≥ 47.1 µM
MIC [2]: > 47.1 µM
MIC [3]: 2.82 µM (≈ 6 µg/mL)
MIC [4]: ≥ 47.1 µM
MIC [5]: 23.5 µM (≈ 50 µg/mL)
MIC [6]: ≥ 47.1 µM
MIC [7]: 23.5 µM (≈ 50 µg/mL)
MIC [8]: 23.5 µM (≈ 50 µg/mL)
MIC [9]: 23.5 µM (≈ 50 µg/mL)

NC(=O)[C@H](Cc1ccccc1)NC(=O)[C@H](CCCN=C(N)N)NC(=O)[C@H](Cc1ccccc1)NC(=O)[C@H](CCCN=C(N)N)NC(=O)[C@H](CS)NC(=O)[C@H](Cc1ccccc1)NC(=O)[C@H](CCCN=C(N)N)NC(=O)[C@H](CCCN=C(N)N)NC(=O)[C@H](CCCN=C(N)N)NC(=O)[C@H](CS)NC(=O)[C@H](CCCN=C(N)N)NC(=O)[C@H](Cc1ccccc1)NC(=O)[C@H](CCCN=C(N)N)NC(=O)[C@@H](N)Cc1ccccc1 [FRFRCRRRFCRFRF]
MIC [10]: 2 µM (≈ 4.11 µg/mL)
MIC [11]: 4 µM (≈ 8.21 µg/mL)
MIC [12]: 1 µM (≈ 2.05 µg/mL)
MIC [13]: 4 µM (≈ 8.21 µg/mL)
MIC [14]: 1 µM (≈ 2.05 µg/mL)
MIC [15]: 2 µM (≈ 4.11 µg/mL)
MIC [16]: 2 µM (≈ 4.11 µg/mL)
MIC [17]: 2 µM (≈ 4.11 µg/mL)

CC[C@H](C)[C@H](NC(=O)[C@H](CO)NC(=O)[C@@H]1CCCN1C(=O)[C@@H](NC(=O)[C@H](CC(C)C)NC(=O)CNC(=O)[C@H](C)NC(=O)[C@H](CC(C)C)NC(=O)[C@@H](NC(=O)[C@@H]1CCCN1C(=O)[C@H](CC(C)C)NC(=O)[C@@H](N)Cc1ccccc1)C(C)C)[C@@H](C)O)C(=O)N[C@H](C(=O)N1CCC[C@H]1C(=O)N[C@@H](CCCCN)C(=O)N[C@@H](CC(C)C)C(=O)N[C@H](C(=O)N[C@H]1CSSC[C@@H](C(=O)O)NC(=O)[C@H](CCCCN)NC(=O)[C@H](CCCCN)NC(=O)[C@H]([C@@H](C)O)NC(=O)[C@H](CC(C)C)NC(=O)[C@H](CC(C)C)NC1=O)C(C)C)C(C)C [FLPVLAGLTPSIVPKLVCLLTKKC]
MIC [18]: 12.5 µM (≈ 31.9 µg/mL)
MIC [19]: 25 µM (≈ 63.8 µg/mL)
MIC [20]: ≥ 100 µM
MIC [21]: 25 µM (≈ 63.8 µg/mL)

CC[C@H](C)[C@H](NC(=O)[C@H](CO)NC(=O)[C@@H]1CCCN1C(=O)[C@H](C)NC(=O)CNC(=O)[C@H](CC(C)C)NC(=O)[C@H](CCCCN)NC(=O)[C@H](CCCN=C(N)N)NC(=O)[C@H](CCSC)NC(=O)[C@H](CCCN=C(N)N)NC(=O)[C@H](CCCN=C(N)N)NC(=O)[C@H](CCC(N)=O)NC(=O)[C@@H](N)Cc1c[nH]c2ccccc12)C(=O)N[C@H](C(=O)O)[C@@H](C)O [WQRRMRKLGAPSIT]
MIC [22]: ≥ 58.8 µM

CC[C@H](C)[C@H](NC(=O)[C@@H](NC(=O)CN)C(C)C)C(=O)N[C@@H](CC(=O)O)C(=O)N[C@@H](C)C(=O)N[C@@H](C)C(=O)N[C@@H](C)C(=O)N[C@@H](CCCCN)C(=O)N[C@H](C(=O)N[C@H](C(=O)N[C@@H](CC(N)=O)C(=O)N[C@H](C(=O)N[C@@H](CC(C)C)C(=O)N[C@@H](CCCCN)C(=O)N[C@@H](CC(N)=O)C(=O)N[C@@H](CC(C)C)C(=O)N[C@@H](Cc1ccccc1)C(N)=O)C(C)C)C(C)C)C(C)C [GVIDAAAKVVNVLKNLF]
MIC [1]: ≥ 56.5 µM
MIC [2]: > 56.5 µM
MIC [3]: 6.78 µM (≈ 12 µg/mL)
MIC [4]: ≥ 56.5 µM
MIC [5]: ≥ 56.5 µM
MIC [6]: ≥ 56.5 µM
MIC [7]: > 56.5 µM
MIC [8]: ≥ 56.5 µM
MIC [9]: 28.2 µM (≈ 50 µg/mL)

CCC(C)[C@H](N=C(O)C(CO)N=C(O)[C@H](CO)N=C(O)[C@@H](N=C(O)C(CC(C)C)N=C(O)CN)C(C)C)C(O)=NCC(O)=N[C@@H](CCCNC(=N)N)C(O)=N[C@@H](C)C(O)=N[C@@H](CC(C)C)C(O)=NCC(O)=NCC(O)=N[C@@H](CC(C)C)C(O)=N[C@@H](CC(C)C)C(O)=N[C@@H](C)C(O)=NC(CC(=O)O)C(O)=NC(C(O)=N[C@@H](C(O)=N[C@H](CCCCN)C(O)=N[C@H](CO)C(O)=N[C@H](CCCCN)C(O)=NCC(O)=N[C@H](CCC(=N)O)C(=O)N1CCCC1C(O)=N[C@H](C)C(=O)O)C(C)C)C(C)C (some centres undefined) [GLVSSIGRALGGLLADVVKSKGQPA]
MIC [1]: ≥ 41.8 µM
MIC [2]: > 41.8 µM
MIC [3]: ≥ 41.8 µM
MIC [4]: ≥ 41.8 µM
MIC [5]: ≥ 41.8 µM
MIC [6]: 10.4 µM (≈ 25 µg/mL)
MIC [7]: > 41.8 µM
MIC [8]: ≥ 41.8 µM
MIC [9]: ≥ 41.8 µM

CC[C@H](C)[C@@H]1NC(=O)[C@H](CC(C)C)NC(=O)[C@@H](NC(=O)[C@@H](NC(=O)[C@H](CC(C)C)NC(=O)[C@H](CCCCN)NC(=O)[C@@H]2CCCN2C(=O)[C@@H](NC(=O)[C@H](CCSC)NC(=O)[C@H](CO)NC(=O)[C@H](C)NC(=O)[C@H](C)NC(=O)[C@H](CC(C)C)NC(=O)CNC(=O)[C@H](C)NC(=O)[C@H](CC(C)C)NC(=O)[C@H](CCSC)NC(=O)[C@@H]2CCCN2C(=O)[C@H](CC(C)C)NC(=O)[C@@H](N)Cc2ccccc2)C(C)C)C(C)C)CSSC[C@@H](C(=O)O)NC(=O)[C@H](CCCCN)NC(=O)[C@H](CCCCN)NC(=O)[C@H]([C@@H](C)O)NC1=O [FLPMLAGLAASMVPKLVCLITKKC]
MIC [18]: 12.5 µM (≈ 31.8 µg/mL)
MIC [19]: 12 µM (≈ 30.6 µg/mL)
MIC [20]: ≥ 50 µM
MIC [21]: 6 µM (≈ 15.3 µg/mL)

CC[C@H](C)[C@H](NC(=O)CNC(=O)[C@H](C)NC(=O)[C@H](C)NC(=O)[C@@H](NC(=O)[C@H](CCCCN)NC(=O)[C@H](CC(C)C)NC(=O)[C@@H](NC(=O)[C@@H]1CCCN1C(=O)CNC(=O)[C@@H](NC(=O)[C@@H](N)Cc1ccccc1)[C@@H](C)CC)C(C)C)[C@@H](C)CC)C(=O)N[C@@H](CC(C)C)C(=O)N1CCC[C@H]1C(=O)N[C@H](C(=O)N[C@@H](C)C(=O)N[C@H](C(=O)N[C@H]1CSSC[C@@H](C(=O)O)NC(=O)[C@H](CCCCN)NC(=O)[C@H](CCCCN)NC(=O)[C@H](Cc2ccccc2)NC(=O)[C@H]([C@@H](C)CC)NC(=O)[C@H](CCCCN)NC1=O)[C@@H](C)CC)[C@@H](C)O [FIGPVLKIAAGILPTAICKIFKKC]
MIC [23]: 1.84 µM (≈ 4.69 µg/mL)
MIC [24]: 1.84 µM (≈ 4.69 µg/mL)
MIC [25]: 7.37 µM (≈ 18.7 µg/mL)
MIC [21]: 0.919 µM (≈ 2.34 µg/mL)
MIC [26]: 3.69 µM (≈ 9.37 µg/mL)

CC[C@H](C)[C@H](NC(=O)[C@H](CO)NC(=O)[C@@H]1CCCN1C(=O)[C@H](C)NC(=O)CNC(=O)[C@H](CC(C)C)NC(=O)[C@H](CCCN=C(N)N)NC(=O)[C@H](CCSC)NC(=O)[C@H](CCCN=C(N)N)NC(=O)[C@H](CCCN=C(N)N)NC(=O)[C@H](CCC(N)=O)NC(=O)[C@H](Cc1c[nH]c2ccccc12)NC(=O)[C@H](CCC(N)=O)NC(=O)[C@@H](N)Cc1ccc(O)cc1)C(=O)N[C@H](C(=O)O)[C@@H](C)O [YQWQRRMRLGAPSIT]
MIC [22]: ≥ 322 µM

CC[C@H](C)[C@H](NC(=O)[C@@H](NC(=O)[C@H](CO)NC(=O)[C@H](C)NC(=O)[C@@H](NC(=O)[C@H](CCCCN)NC(=O)[C@H](CCCCN)NC(=O)[C@@H](NC(=O)[C@@H](NC(=O)[C@H](CC(=O)O)NC(=O)[C@H](Cc1ccccc1)NC(=O)[C@H](CC(C)C)NC(=O)CN)C(C)C)[C@@H](C)CC)C(C)C)C(C)C)C(=O)N[C@@H](CCCCN)C(=O)N[C@@H](CCCCN)C(=O)N[C@@H](CC(C)C)C(N)=O [GLFDVIKKVASVIKKL]
MIC [1]: 14.2 µM (≈ 25 µg/mL)
MIC [2]: > 56.9 µM
MIC [3]: 1.71 µM (≈ 3 µg/mL)
MIC [4]: 28.4 µM (≈ 50 µg/mL)
MIC [5]: 28.4 µM (≈ 50 µg/mL)
MIC [6]: ≥ 56.9 µM
MIC [7]: 56.9 µM (≈ 99.9 µg/mL)
MIC [8]: 6.83 µM (≈ 12 µg/mL)
MIC [9]: 28.4 µM (≈ 50 µg/mL)
